# Assay results taken from patent US12178793B2, “Ophthalmic compositions containing a nitric oxide releasing prostamide” (NICOX SA, priority 2018, dated 2024).
# Legend:
# [1] = Aqueous solubility of the active ingredient; format: physicochemical; settings: water, read-out: minimum aqueous solubility
# Description: Hexanoic acid, 6-(nitrooxy)-, (1S,2E)-3-[(1R,2R,3S,5R)-2-[(2Z)-7-(ethylamino)-7-oxo-2-hepten-1-yl]-3,5-dihydroxycyclopentyl]-1-(2-phenylethyl)-2-propen-1-yl ester is a viscous oil having a minimum aqueous solubility of 0.02 mg/ml therefore aqueous pharmaceutical compositions of hexanoic acid, 6-(nitrooxy)-, (1S,2E)-3-[(1R,2R,3S,5R)-2-[(2Z)-7-(ethylamino)-7-oxo-2-hepten-1-yl]-3,5-dihydroxycyclopentyl]-1-(2-phenylethyl)-2-propen-1-yl ester must contain solubilizing agents that increase the water solubility of the compound and allow achieving therapeutically active concentrations of the compound.
# [2] = Solubility in aqueous solutions at pH 6.0 containing a solubilizing agent; format: physicochemical
# [3] = cited from earlier work
# [4] = Pharmacokinetic evaluation after single ocular instillation, Study 2 (bimatoprost free acid in aqueous humor); format: in vivo, Dutch Belted Rabbits; settings: bimatoprost free acid in aqueous humor as marker; benzalkonium chloride up to 0.02% w/w
# Source text: Pharmacokinetic Evaluation in Dutch Belted Rabbits after Single Ocular Instillation
# The aim of this study was to assess the aqueous humor content of bimatoprost free acid following topical ocular dosing with three different aqueous ophthalmic solutions containing hexanoic acid, 6-(nitrooxy)-, (1S,2E)-3-[(1R,2R,3S,5R)-2-[(2Z)-7-(ethylamino)-7-oxo-2-hepten-1-yl]-3,5-dihydroxycyclopentyl]-1-(2-phenylethyl)-2-propen-1-yl ester (0.042% w/w) in three different vehicles reported in Table 10.
# Forty animals were included in the study. They were allocated into four groups of 10 animals/group and were administered with the above reported tested aqueous ophthalmic solutions
# All animals included in the study were administered by ocular instillation of both eyes by means of a graduated pipette at a volume of […]. Two animals per formula were sacrificed at 0 h (pre-dose), 1 h, 2 h, 4 h and 8 h, and aqueous humor samples were obtained immediately from both eyes.
Compound,solubility [1],solubility ([2]; aqueous solution at pH 6.0 containing 0.5% (w/w) macrogol 15-hydroxystearate (Kolliphor HS15)),solubility ([2]; aqueous solution at pH 6.0 containing 0.5% (w/w) polysorbate 80 (Tween 80)),"intra ocular pressure (IOP)-lowering ([3]; Impagnatiello et al., Invest Ophthalmol Vis Sci. 2015)","IOP-lowering efficacy versus bimatoprost ([3]; vs equimolar doses of bimatoprost, vehicle 0.25% Tween 80, 0.02% BAK, 2% glycerine and 0.1% EDTA, Br J Pharmacol 2018)",effect of the excipient on the ocular penetration of NCX 470 [4]
"CCNC(=O)CCC/C=C\C[C@@H]1[C@@H](/C=C/[C@H](CCc2ccccc2)OC(=O)CCCCCO[N+](=O)[O-])[C@H](O)C[C@@H]1O [NCX 470, Hexanoic acid, 6-(nitrooxy)-, (1S,2E)-3-[(1R,2R,3S,5R)-2-[(2Z)-7-(ethylamino)-7-oxo-2-hepten-1-yl]-3,5-dihydroxycyclopentyl]-1-(2-phenylethyl)-2-propen-1-yl ester]",20 µg/mL,0.070 % (w/w),0.074 % (w/w),effective,greater IOP-lowering efficacy,–
benzalkonium chloride,–,–,–,–,–,did not exert any effect
